Measurements: the PolyMetriX glass transition set
± gives the standard deviation of the reports.

| Structure (SMILES) | glass transition temperature |
| --- | --- |
| *c1ccc(Oc2ccc(-c3ccc(Oc4ccc(-c5ncc(*)o5)cc4C(F)(F)F)cc3)cc2)c(C(F)(F)F)c1 (repeat unit) | 200.00 °C |
| *Oc1ccc(NC(=O)/C=C/C(=O)NNC(=O)/C=C/C(=O)Nc2ccc(OC(=O)c3ccccc3C(=O)NNC(=O)c3ccccc3C(*)=O)cc2)cc1 (repeat unit) | 240.00 °C |
| *Oc1ccc(-c2ccc(Oc3ccc(C(=O)c4ccccc4-c4ccccc4C(=O)c4ccc(*)cc4)cc3)cc2)cc1 (repeat unit) | 193.00 °C |
| *Oc1cc(C)cc(OC(=O)c2cccc(C(*)=O)c2)c1 (repeat unit) | 163.00 °C |
| *Nc1ccc(NC(=O)Cc2cc(CC(*)=O)c(C)cc2C)cc1 (repeat unit) | 208.00 °C |
| *CC(*)(C)C(=O)OC1CCC(C(C)(C)C)CC1 (repeat unit) | 100.00 °C |
| *CC(O)COC(=O)CCCCCCCCCCC(=O)OCC(O)COc1ccc(O*)cc1 (repeat unit) | 10.00 °C |
| *CCOC(=O)c1ccc(C(=O)O*)c2ccccc12 (repeat unit) [Poly(ethylene- 1 ,4-naphthalenedicarboxylate) ] | 64 ± 1.2 °C |
| *CCc1ccc(NC(=O)c2cccc(C(=O)Nc3ccc(CCOC(=O)c4cccc(C(=O)O*)c4)cc3)c2)cc1 (repeat unit) | 142.00 °C |
| *Oc1ccc(S(=O)(=O)c2ccc3cc(S(=O)(=O)c4ccc(Oc5c(C)cc(-c6cc(C)c(*)c(C)c6)cc5C)cc4)ccc3c2)cc1 (repeat unit) | 280.00 °C |
| *Oc1ccccc1C(=O)OC(=O)c1ccccc1OC(=O)c1cccc(C(*)=O)c1 (repeat unit) | 105.00 °C |
| *Oc1ccc(C2(c3ccc(OC(*)=O)c(C)c3)CC3CCC2C3)cc1C (repeat unit) | 161.00 °C |
| *c1ccc(-c2ccc(-n3c(=O)c4cc5c(=O)n(*)c(=O)c5cc4c3=O)cc2OC)c(OC)c1 (repeat unit) | 328.00 °C |
| *Nc1ccc(Cc2ccc(NC(=O)NCCCCCCCCCNC(*)=O)cc2)cc1 (repeat unit) | -50.00 °C |
| *OC(COC(=O)c1ccc2cc(C(*)=O)ccc2c1)COc1ccc(/N=N/c2ccc(C#N)cc2)cc1 (repeat unit) | 138.00 °C |
| *CCOCCOC(=O)c1ccc(-c2ccc(C(=O)O*)cc2)cc1 (repeat unit) | 50.00 °C |
| *CC(c1ccccc1)C1C(=O)N(CCCN(CC)c2ccc(/N=N/c3ccc([N+](=O)[O-])cc3)c(C)c2)C(=O)C1* (repeat unit) | 137.00 °C |
| *c1ccc(NC2CC(=O)N(c3ccc(Cc4ccc(N5C(=O)CC(Nc6ccc(-c7nc(-c8ccc(/N=N/c9ccc([N+](=O)[O-])cc9)cc8)[nH]c7*)cc6)C5=O)cc4)cc3)C2=O)cc1 (repeat unit) | 258.00 °C |
| *C(=O)c1ccc2c(c1)C(=O)N(c1ccc(Oc3ccc(C(=O)c4ccc(C(=O)c5ccc(C(=O)c6ccc(Oc7ccc(N8C(=O)c9ccc(*)cc9C8=O)cc7)cc6)cc5)cc4)cc3)cc1)C2=O (repeat unit) | 233.00 °C |
| *OC(=O)/C=C/C(=O)OC1COC2C(*)COC12 (repeat unit) | 60.00 °C |
| *CCNC(=O)c1cccc(O*)c1 (repeat unit) | 106.00 °C |

| Structure (SMILES) | glass transition temperature |
| --- | --- |
| *Oc1ccc(Oc2ccc(C(=O)Nc3ccc(Oc4ccc(S(=O)(=O)c5ccc(Oc6ccc(NC(=O)c7ccc(*)cc7)cc6)cc5)cc4)cc3)cc2)cc1C (repeat unit) | 217.00 °C |
| *c1ccc([Si](c2ccccc2)(c2ccccc2)c2ccc(-c3nnc(-c4cncc(-c5nnc(*)o5)c4)o3)cc2)cc1 (repeat unit) | 272.00 °C |
| *C(=O)c1ccc2c(c1)C(=O)N(c1ccc(Oc3ccc(N4C(=O)c5ccc(*)cc5C4=O)cc3Br)c(Br)c1)C2=O (repeat unit) | 296.00 °C |
| *Oc1cc(OC(=O)c2ccc(OCCCC)cc2)c(OC(=O)CCCCCC(*)=O)cc1OC(=O)c1ccc(OCCCC)cc1 (repeat unit) | 45.00 °C |
| *c1ccc(Cc2ccc(N3C(=O)c4ccc(S(=O)(=O)c5ccc6c(c5)C(=O)N(*)C6=O)cc4C3=O)cc2)cc1 (repeat unit) | 319.00 °C |
| *Oc1ccccc1C(=O)OC(=O)c1ccccc1OC(=O)CCCCCCCCC(*)=O (repeat unit) | 28.00 °C |
| *O[Si](C)(C)CCCC(=O)Oc1ccc(/C=N/c2ccc(Cc3ccc(/N=C/c4ccc(OC(=O)CCC[Si](*)(C)C)cc4)cc3)cc2)cc1 (repeat unit) | 68.00 °C |
| *c1cc(C(c2ccc(O)c(-n3c(=O)c4cc5c(=O)n(*)c(=O)c5cc4c3=O)c2)(C(F)(F)F)C(F)(F)F)ccc1O (repeat unit) | 350.00 °C |
| *Oc1ccc(C(C)(C)c2ccc(OC(=O)c3cccc(C(*)=O)c3)cc2)cc1 (repeat unit) [Poly(bisphenol A isophthalate)] | 184.42 ± 6.3 °C |
| *Nc1ccc(Nc2ccc(C(=O)c3ccc(C(=O)c4ccc(*)cc4)cc3)cc2)cc1 (repeat unit) | 203.50 °C |
| *c1ccc(-c2ccc(N3C(=O)c4ccc(-c5cccc6c5C(=O)N(*)C6=O)cc4C3=O)cc2C)c(C)c1 (repeat unit) | 372.00 °C |
| *CO* (repeat unit) [Polyoxymethylene ] | -56 ± 8.9 °C |
| *CC(*)(C)C(=O)OCc1cc(Cl)cc(Cl)c1 (repeat unit) | 30.0 °C |
| *c1ccc2c(c1)C(=O)N(c1ccc(Oc3ccc(N4C(=O)c5ccc(C(F)(F)C(F)(F)C(F)(F)C(F)(F)C(F)(F)C(F)(F)C(*)(F)F)cc5C4=O)cc3)cc1)C2=O (repeat unit) | 178.00 °C |
| *Oc1ccc(C(C)(C)c2ccc(Oc3ccc(C(=O)c4c(C(=O)c5ccc(*)cc5)c(-c5ccccc5)c(-c5ccc6ccccc6c5)c(-c5ccc6ccccc6c5)c4-c4ccccc4)cc3)cc2)cc1 (repeat unit) | 264.00 °C |
| *CC(c1ccccn1)C(c1ccccc1)C(*)c1ccccn1 (repeat unit) | 150.00 °C |
| *Oc1ccc(C(C)(C)c2ccc(OC(=O)c3ccc(C(c4ccc(C(*)=O)cc4)(C(F)(F)F)C(F)(F)F)cc3)cc2)cc1 (repeat unit) | 124.00 °C |
| *CC(*)C(=O)OC(OCC)C(F)(F)F (repeat unit) | 5.00 °C |
| *C(=O)Nc1ccc(C(c2ccc(NC(=O)c3ccc4c(c3)C(=O)N(c3ccc(Oc5cccc6c(Oc7ccc(N8C(=O)c9ccc(*)cc9C8=O)cc7)cccc56)cc3)C4=O)cc2)(C(F)(F)F)C(F)(F)F)cc1 (repeat unit) | 283.00 °C |
| *OC(=O)c1cccc(OCCCCCCCCOc2cccc(C(=O)OC3COC4C(*)COC34)c2)c1 (repeat unit) | 33.00 °C |
| *CC(*)c1ccc(COc2ccc(-c3ccc(-c4ccc(C)cc4)c4nsnc34)cc2)cc1 (repeat unit) | 117.00 °C |

| Structure (SMILES) | glass transition temperature |
| --- | --- |
| *CC(*)c1ccc(COc2ccc(-c3ccc(C#N)cc3)cc2)cc1 (repeat unit) | 132.00 °C |
| *c1ccc(Oc2ccc(C3(c4ccc(Oc5ccc(N6C(=O)CC(=O)N(*)C6=S)cc5)cc4)c4ccccc4-c4ccccc43)cc2)cc1 (repeat unit) | 175.00 °C |
| *CC(*)OCCCCCCCC (repeat unit) [Poly(octyl vinyl ether)] | -79.83 ± 0.9 °C |
| *CCCCCCCCCCNC(=O)c1ccc(C(=O)N*)c(Oc2ccccc2)c1 (repeat unit) | 94.00 °C |
| *CC(*)(CC(=O)Oc1ccc(OCCCCC)cc1)C(=O)Oc1ccc(OCCCCC)cc1 (repeat unit) | 73.50 °C |
| *CC(*)C(=O)OCC(F)(F)C(F)(F)OC(F)(F)C(F)(F)C(F)(F)C(F)(F)F (repeat unit) | -68.00 °C |
| *c1cccc(Oc2cccc(Oc3cccc(N4C(=O)c5ccc(-c6cccc7c6C(=O)N(*)C7=O)cc5C4=O)c3)c2)c1 (repeat unit) | 213.00 °C |
| *c1ccc(Oc2ccc(-c3nc4cc(Oc5ccc(NC(=O)c6cc(C(=O)Nc7ccc(Oc8ccc9nc(-c%10ccccc%10)c(*)nc9c8)cc7)cc(N7C(=O)c8ccccc8C7=O)c6)cc5)ccc4nc3-c3ccccc3)cc2)cc1 (repeat unit) | 260.00 °C |
| *c1ccc(-c2cc(CCCCCCCC)c(-c3ccc(-c4ccc(-c5sc(-c6ccc([Si](C)(C)[Si](C)(C)[Si](C)(C)[Si](*)(C)C)s6)cc5CCCCCCCC)s4)s3)s2)s1 (repeat unit) | 6.00 °C |
| *c1ccc(-c2ccc(-c3nc4ccc(-c5ccc6nc(*)c(-c7ccccc7)nc6c5)cc4nc3-c3ccccc3)cc2)cc1 (repeat unit) | 404.00 °C |
| *c1ccc(N(c2ccc(C#N)cc2)c2ccc(N3C(=O)c4ccc(Oc5ccc6c(c5)C(=O)N(*)C6=O)cc4C3=O)cc2)cc1 (repeat unit) | 304.00 °C |
| *CC(*)(C)C(=O)OCc1ccc2c(c1)c1ccccc1n2CCCCCCCC (repeat unit) | 45.00 °C |
| *CCN(CCOC(=O)Nc1ccc(C)c(NC(=O)O*)c1)c1ccc(/N=N/c2ccc([N+](=O)[O-])cc2)cc1 (repeat unit) | 144.00 °C |
| *c1ccc(Oc2ccc(N3C(=O)c4cccc(Oc5c(C)cc(-c6cc(C)c(Oc7cccc8c7C(=O)N(*)C8=O)c(C)c6)cc5C)c4C3=O)cc2)cc1 (repeat unit) | 298.00 °C |
| *CC(C)(C)CS(=O)(=O)CC(C)(C)COC(=O)NCCCCCCNC(=O)O* (repeat unit) | 30.00 °C |
| *=Nc1ccc(/N=C(/C=C/C(=*)c2ccccc2)c2ccccc2)cc1 (repeat unit) | 157.00 °C |
| *CCCCNC(=O)c1ccc(C(=O)N*)c(Oc2ccccc2)c1 (repeat unit) | 125.00 °C |
| *CCC(c1ccccc1)[Si](*)(C)C (repeat unit) | 27.00 °C |
| *NC(CCC(=O)OCCCCCC)C(*)=O (repeat unit) | -25.00 °C |
| *c1ccc(-c2ccc(N3C(=O)c4ccc(Oc5ccc6c(c5)C(=O)N(*)C6=O)cc4C3=O)c(OCCCCCCOc3ccc(/C=C/c4ccc(F)cc4)cc3)c2)cc1OCCCCCCOc1ccc(/C=C/c2ccc(F)cc2)cc1 (repeat unit) | 124.00 °C |
